This note sets out measurements from patent publication US20020049249A1, “PPAR receptor activator compounds for treating cutaneous disorders/afflictions” (priority 1999, published 2002).

Holding throughout (type): cell-based
For assay [1], the target named is T1, PPAR-α (Homo sapiens, UniProt Q07869).
T1 construct: expressed in transfected cells; host or cells: HeLa cells
T1 sequence (Q07869 1-468): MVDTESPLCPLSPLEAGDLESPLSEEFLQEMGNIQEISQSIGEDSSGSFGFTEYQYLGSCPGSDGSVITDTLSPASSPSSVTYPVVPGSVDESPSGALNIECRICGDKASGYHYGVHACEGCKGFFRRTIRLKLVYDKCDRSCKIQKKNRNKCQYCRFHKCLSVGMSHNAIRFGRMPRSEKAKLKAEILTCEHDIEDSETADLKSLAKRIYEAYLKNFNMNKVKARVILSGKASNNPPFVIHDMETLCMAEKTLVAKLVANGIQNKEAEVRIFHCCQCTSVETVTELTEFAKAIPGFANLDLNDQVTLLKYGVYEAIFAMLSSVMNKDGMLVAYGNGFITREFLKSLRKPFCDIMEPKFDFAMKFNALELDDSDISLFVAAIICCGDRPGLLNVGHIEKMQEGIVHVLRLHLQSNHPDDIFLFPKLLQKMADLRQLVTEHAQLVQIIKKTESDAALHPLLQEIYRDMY
Kind of assay: PPAR-α transactivation test (luciferase reporter, cotransfected HeLa cells). Conditions: HeLa cells cotransfected with receptor vector and PPRE-luciferase reporter, 24 hours; relative to Reference 1. Further details: concentration or dose not given beside the values. The protocol:
(§1) This activity is determined employing an enzyme (luciferase) which is a reporter of the activation due to the compound via one of the PPAR receptors.
(§2) The biological tests carried out correspond to those described above. […] Thus, the activating power via PPAR-α, PPAR-γ or PPAR-δ of molecules can be evaluated with a transactivation test in which HeLa cells were cotransfected with an expression vector encoding these receptors and a reporter plasmid comprising a PPRE response element cloned upstream of a portion of a promoter of the SV40 virus and of the luciferase gene. The cotransfected cells were treated for 24 hours with the molecules to be tested and the activity of the luciferase was determined by luminescence.

Assay [2] concerns the target T2, PPAR-γ (Homo sapiens, UniProt P37231).
T2 construct: expressed in transfected cells; host or cells: HeLa cells
T2 sequence (P37231 1-505): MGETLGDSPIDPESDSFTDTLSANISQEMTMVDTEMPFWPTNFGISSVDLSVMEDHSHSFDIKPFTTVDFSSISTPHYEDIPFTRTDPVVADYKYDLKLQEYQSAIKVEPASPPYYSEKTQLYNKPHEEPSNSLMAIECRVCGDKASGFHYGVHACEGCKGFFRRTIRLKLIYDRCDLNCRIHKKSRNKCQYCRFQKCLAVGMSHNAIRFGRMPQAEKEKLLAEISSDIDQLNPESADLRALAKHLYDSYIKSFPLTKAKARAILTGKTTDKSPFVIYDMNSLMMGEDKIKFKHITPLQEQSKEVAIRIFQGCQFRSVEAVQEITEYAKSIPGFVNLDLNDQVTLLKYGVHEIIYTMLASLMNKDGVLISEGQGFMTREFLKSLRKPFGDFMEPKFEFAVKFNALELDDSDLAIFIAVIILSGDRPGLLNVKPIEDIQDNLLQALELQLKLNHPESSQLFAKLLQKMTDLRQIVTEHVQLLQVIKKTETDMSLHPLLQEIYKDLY
Briefly: PPAR-γ transactivation test (luciferase reporter, cotransfected HeLa cells). To be noted: HeLa cells cotransfected with receptor vector and PPRE-luciferase reporter, 24 hours; relative to Reference 2. Further details: concentration or dose not given beside the values. The protocol:
as §1, §2

Assay [3] deals with T3, PPAR-β (Homo sapiens, UniProt Q03181).
T3 construct: expressed in transfected cells; host or cells: HeLa cells
T3 sequence (Q03181 1-441): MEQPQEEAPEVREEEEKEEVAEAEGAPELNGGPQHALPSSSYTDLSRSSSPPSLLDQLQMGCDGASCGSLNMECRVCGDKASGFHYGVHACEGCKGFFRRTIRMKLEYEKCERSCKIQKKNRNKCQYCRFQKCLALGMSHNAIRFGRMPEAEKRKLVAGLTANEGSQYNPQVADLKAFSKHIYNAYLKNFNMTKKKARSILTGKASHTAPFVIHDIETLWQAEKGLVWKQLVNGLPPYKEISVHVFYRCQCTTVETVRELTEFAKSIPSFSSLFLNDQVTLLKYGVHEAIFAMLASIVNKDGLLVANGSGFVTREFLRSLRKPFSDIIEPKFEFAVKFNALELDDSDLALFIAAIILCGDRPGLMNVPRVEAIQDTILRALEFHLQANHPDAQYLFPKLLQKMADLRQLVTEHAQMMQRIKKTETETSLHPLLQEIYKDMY
Kind of assay: PPAR-β transactivation test (luciferase reporter, cotransfected HeLa cells). To be noted: 24 hours; for % of activation, β: HeLa cells cotransfected with receptor vector and PPRE-luciferase reporter, relative to Reference 2; for AC50: HeLa cells cotransfected, concentration giving 50% of the activity of the reference molecule. Further details: % of activation, β: concentration or dose not given beside the values. The protocol:
as §1, §2
Background: A reporter such as luciferase makes a cellular process visible.

As for `CC1(C)CCC(C)(C)c2cc(Oc3ccc(C=CC(=O)O)cc3)ccc21` [Compound 2, 3-[4-(5,5,8,8-tetramethyl-5,6,7,8-tetrahydronaphth-2-yloxy)phenyl]acrylic acid], in assay [1], the “% of activation, α” value was 12%. The “% of activation, γ” value in assay [2] worked out at 18%. In assay [3], the “% of activation, β” value turned out to be 204% and the activity was half-maximal at 900 nM (AC50).

For the molecule `CC1(C)CCC(C)(C)c2cc(Oc3ccc4cc(C(=O)O)ccc4c3)ccc21` [Compound 1, 6-(5,5,8,8-tetramethyl-5,6,7,8-tetrahydronaphth-2-yloxy)naphthalene-2-carboxylic acid], the “% of activation, α” value in assay [1] is 18%. For the same molecule, in assay [2], the “% of activation, γ” value was 23%. In assay [3], the “% of activation, β” value was 152% and the activity was half-maximal at 700 nM (AC50).

Regarding `CC(=CC(=O)O)c1ccc(Oc2ccc3c(c2)C(C)(C)CCC3(C)C)cc1` [Compound 4, 3-[4-(5,5,8,8-tetramethyl-5,6,7,8-tetrahydronaphth-2-yloxy)phenyl]but-2-enoic acid], in assay [1], the “% of activation, α” value is reported as 12%. For the same molecule, the “% of activation, γ” value in assay [2] stood at 0%. In addition, the “% of activation, β” value in assay [3] is 56%.

On to `Cc1cccc(Nc2cc(Cl)nc(SCC(=O)O)n2)c1C` [Reference 1, [4-chloro-6-(2,3-dimethyl-phenylamino)pyrimidin-2-ylsulfanyl]acetic acid, reference compound], for which, in assay [1], the “% of activation, α” value is on record as 100%.

In the case of `CC1(C)CCC(C)(C)c2cc(Nc3ccc4cc(C(=O)O)ccc4c3)ccc21` [Compound 5, 6-(5,5,8,8-tetramethyl-5,6,7,8-tetrahydronaphth-2-ylamino)naphthalene-2-carboxylic acid], the “% of activation, α” value in assay [1] was determined as 25%. In addition, in assay [2], the “% of activation, γ” value came out at 69%. In addition, in assay [3], the “% of activation, β” value is recorded as 328% and the half-maximal activity concentration (AC50) was determined as 7000 nM.

`CC(=O)NC(=Cc1ccc(Oc2ccc3c(c2)C(C)(C)CCC3(C)C)cc1)C(=O)O` [Comparative Example 2, 2-acetylamino-3-[4-(5,5,8,8-tetramethyl-5,6,7,8-tetrahydronaphth-2-yloxy)phenyl]-acrylic acid, reference compound]: the “% of activation, α” value in assay [1] was found to be 7%. For the same molecule, in assay [2], the “% of activation, γ” value was determined as 4%. Besides, the “% of activation, β” value in assay [3] came out at 0%.

With `CC1=NC(=Cc2ccc(Oc3ccc4c(c3)C(C)(C)CCC4(C)C)cc2)C(=O)O1` [Comparative Example 1, 2-methyl-4-[4-(5,5,8,8,-tetramethyl-5,6,7,8-tetrahydronaphth-2-yloxy)benzylidine]-4H-oxazol-5-one, reference compound], the “% of activation, α” value in assay [1] came to 5%. In addition, in assay [2], the “% of activation, γ” value is on record as 0%. The “% of activation, β” value in assay [3] was 7%.

With `CC1(C)CCC(C)(C)c2cc(Sc3ccc4cc(C(=O)O)ccc4c3)ccc21` [Compound 3, 6-(5,5,8,8-tetramethyl-5,6,7,8-tetrahydronaphth-2-ylsulfanyl)naphthalene-2-carboxylic acid], in assay [1], the “% of activation, α” value worked out at 24%. For the same molecule, the “% of activation, γ” value in assay [2] is listed as 40%. Also, in assay [3], the “% of activation, β” value is 172% and the AC50 was 200 nM.

As usually defined, the AC50 is the concentration at which the activity in the assay is half-maximal.
